≈ marks a conversion by molar mass, not a printed value. Each block holds one compound with its values, some of them ahead of it. Calls of active or inactive are those of the source. The calls are words filed in the database; no cut-off is given here.
How the values were obtained:
Staphylococcus aureus [1] = assay: Minimum inhibitory concentration against gram-negative and gram-positive bacterial strains; Not active.; format: functional, organism-based
Staphylococcus aureus [2] = assay: Compound was evaluated for its antibiotic activity against gram-negative and gram-positive bacterial strains; NA = not active; format: functional, organism-based
Proteus vulgaris = assay: Minimum inhibitory concentration against Proteus vulgaris 101N; format: functional
Penicillium digitatum = assay: Minimum inhibitory concentration against Penicillium digitatum 0184; format: functional
Saccharomyces cerevisiae = assay: Minimum inhibitory concentration against Saccharomyces cerevisiae 90; format: functional
Enterococcus faecium = assay: Minimum inhibitory concentration against Streptococcus faecium ATCC 8043; format: functional
[3] = system: Acinetobacter calcoaceticus; assay: Minimum inhibitory concentration against Acinetobacter calcoaceticus PCl3; format: functional
Bacillus [4] = assay: Minimum inhibitory concentration against Bacillus sp. E; format: functional
Candida albicans = assay: Minimum inhibitory concentration against yeast Candida albicans 155; format: functional
Klebsiella pneumoniae = assay: Minimum inhibitory concentration against Klebsiella pneumoniae 369; format: functional
Micrococcus luteus = assay: Minimum inhibitory concentration against Micrococcus luteus PCI; format: functional
Priestia megaterium = assay: Minimum inhibitory concentration against Bacillus megaterium 164; format: functional
Streptomyces sp. = assay: Minimum inhibitory concentration against Gram positive filament Streptomyces cellulose 097; format: functional
Bacillus [5] = assay: Minimum inhibitory concentration against Bacillus sp. TA; format: functional
Serratia = assay: Minimum inhibitory concentration against Serratia sp.101; format: functional
Serratia marcescens = assay: Minimum inhibitory concentration against Serratia marcescens SM; format: functional
Paecilomyces variotii = assay: Minimum inhibitory concentration against Paecilomyces varioti M16; format: functional
Bacillus subtilis = assay: Minimum inhibitory concentration against Bacillus subtilis 558; format: functional
Escherichia coli = assay: Minimum inhibitory concentration against Escherichia coli 94; format: functional
Staphylococcus aureus [6] = assay: Minimum inhibitory concentration against Staphylococcus aureus 82; format: functional
Mycolicibacterium phlei = assay: Minimum inhibitory concentration against Mycobacterium phlei 78; format: functional
Pseudomonas aeruginosa = assay: Minimum inhibitory concentration against Pseudomonas aeruginosa 56; format: functional

MIC (Staphylococcus aureus [1]): inactive
Structure (SMILES): C=C1CCOC2C(=O)N(Cc3ccccc3)[C@@H]1C(=O)N2Cc1ccccc1

MIC (Staphylococcus aureus [1]): inactive
Structure (SMILES): O=C1N[C@H]2CCCOC1NC2=O

MIC (Staphylococcus aureus [1]): inactive
Structure (SMILES): CN1C(=O)[C@@H]2CCCOC1C(=O)N2C

MIC (Staphylococcus aureus [1]): inactive
Structure (SMILES): C=CC1COC2C(=O)N(Cc3ccccc3)[C@@H]1C(=O)N2Cc1ccccc1 (some centres not stated)

MIC (Staphylococcus aureus [2]): inactive
Structure (SMILES): CSC12OCCC[C@@](C)(C(=O)N1C)N(C)C2=O

MIC (Proteus vulgaris): > 1000 µg/mL
MIC (Penicillium digitatum): > 1000 µg/mL
MIC (Saccharomyces cerevisiae): > 1000 µg/mL
MIC (Enterococcus faecium): > 1000 µg/mL
MIC [3]: > 1000 µg/mL
MIC (Bacillus [4]): > 1000 µg/mL
MIC (Candida albicans): > 1000 µg/mL
MIC (Klebsiella pneumoniae): > 1000 µg/mL
MIC (Micrococcus luteus): 500 µg/mL (≈ 1320 µM)
MIC (Priestia megaterium): 500 µg/mL (≈ 1320 µM)
MIC (Streptomyces sp.): 500 µg/mL (≈ 1320 µM)
MIC (Bacillus [5]): 250 µg/mL (≈ 661 µM)
MIC (Serratia): > 1000 µg/mL
MIC (Serratia marcescens): > 1000 µg/mL
MIC (Paecilomyces variotii): > 1000 µg/mL
MIC (Bacillus subtilis): 250 µg/mL (≈ 661 µM)
MIC (Escherichia coli): > 1000 µg/mL
MIC (Staphylococcus aureus [6]): > 1000 µg/mL
MIC (Mycolicibacterium phlei): > 1000 µg/mL
MIC (Pseudomonas aeruginosa): > 1000 µg/mL
Structure (SMILES): C=C1CCOC2C(=O)N(Cc3ccccc3)[C@]1(O)C(=O)N2Cc1ccccc1

MIC (Proteus vulgaris): > 1000 µg/mL
MIC (Penicillium digitatum): > 1000 µg/mL
MIC (Saccharomyces cerevisiae): > 1000 µg/mL
MIC (Enterococcus faecium): > 1000 µg/mL
MIC [3]: 1000 µg/mL (≈ 3310 µM)
MIC (Bacillus [4]): > 1000 µg/mL
MIC (Candida albicans): > 1000 µg/mL
MIC (Klebsiella pneumoniae): 250 µg/mL (≈ 827 µM)
MIC (Micrococcus luteus): > 1000 µg/mL
MIC (Priestia megaterium): > 1000 µg/mL
MIC (Streptomyces sp.): 500 µg/mL (≈ 1650 µM)
MIC (Bacillus [5]): > 1000 µg/mL
MIC (Serratia): > 1000 µg/mL
MIC (Serratia marcescens): > 1000 µg/mL
MIC (Paecilomyces variotii): > 1000 µg/mL
MIC (Bacillus subtilis): > 1000 µg/mL
MIC (Escherichia coli): 250 µg/mL (≈ 827 µM)
MIC (Staphylococcus aureus [6]): > 1000 µg/mL
MIC (Mycolicibacterium phlei): 1000 µg/mL (≈ 3310 µM)
MIC (Pseudomonas aeruginosa): > 1000 µg/mL
Structure (SMILES): C=C1CCO[C@]2([C@@H](O)[C@@](C)(O)CO)NC(=O)[C@@]1(O)NC2=O [BICOZAMYCIN]

MIC (Staphylococcus aureus [1]): inactive
Structure (SMILES): O=C1[C@@H]2CCCOC(C(=O)N2Cc2ccccc2)N1Cc1ccccc1

MIC (Staphylococcus aureus [1]): inactive
Structure (SMILES): CN1C(=O)[C@]2(C(O)c3ccccc3)CCCOC1C(=O)N2C (some centres not stated)

MIC (Staphylococcus aureus [2]): inactive
Structure (SMILES): CN1C(=O)[C@@H]2CCOC1C(=O)N2C

MIC (Staphylococcus aureus [1]): inactive
Structure (SMILES): O=C1[C@@H]2[C@H](CO)COC(C(=O)N2Cc2ccccc2)N1Cc1ccccc1

MIC (Staphylococcus aureus [1]): inactive
Structure (SMILES): C[C@](O)(CO)[C@H](O)C12NC(=O)[C@](O)(CCCO1)NC2=O

MIC (Staphylococcus aureus [1]): inactive
Structure (SMILES): C=C1CCOC2([C@@H](O)[C@@](C)(O)CO)NC(=O)[C@@]1(O)NC2=O

MIC (Staphylococcus aureus [1]): inactive
Structure (SMILES): O=C1N[C@@]2(O)CCCOC1NC2=O

MIC (Staphylococcus aureus [1]): inactive
Structure (SMILES): CS[C@@]12CCCOC(C(=O)N1C)N(C)C2=O

MIC (Staphylococcus aureus [1]): inactive
Structure (SMILES): C=C1COC2C(=O)N(Cc3ccccc3)[C@@H]1C(=O)N2Cc1ccccc1

MIC (Staphylococcus aureus [1]): inactive
Structure (SMILES): C=C1CCOC2NC(=O)[C@H]1NC2=O

MIC (Staphylococcus aureus [2]): inactive
Structure (SMILES): CN1C(=O)[C@]2(C(=O)c3ccccc3)CCOC1C(=O)N2C

MIC (Staphylococcus aureus [1]): inactive
Structure (SMILES): O=C1C2OCCC[C@@](O)(C(=O)N2Cc2ccccc2)N1Cc1ccccc1

MIC (Staphylococcus aureus [2]): inactive
Structure (SMILES): C=C1CCOC2NC(=O)[C@@]1(O)NC2=O

MIC (Staphylococcus aureus [2]): inactive
Structure (SMILES): C=CC1COC2NC(=O)[C@H]1NC2=O (some centres not stated)

MIC (Staphylococcus aureus [1]): inactive
Structure (SMILES): COc1ccc(N2C(=O)[C@@H]3CCCOC2C(=O)N3c2ccc(OC)cc2)cc1

MIC (Staphylococcus aureus [1]): inactive
Structure (SMILES): COc1ccc(CN2C(=O)[C@@H]3CCCOC2C(=O)N3Cc2ccc(OC)cc2)cc1

MIC (Staphylococcus aureus [1]): inactive
Structure (SMILES): C[C@](O)(CO)[C@H](O)C12NC(=O)[C@H](CCCO1)NC2=O
